Experimental data as given in ChEMBL document CHEMBL2424642, “Heterocyclic glucocorticoid receptor modulators with a 2,2-dimethyl-3-phenyl-N-(thiazol or thiadiazol-2-yl)propanamide core” (Bioorg Med Chem Lett, 2013).

Experiments:
Glucocorticoid receptor [1] = biological target: T1, Glucocorticoid receptor (Homo sapiens, UniProt P04150); test: Binding affinity to glucocorticoid receptor-LBD (unknown origin) by fluorescence polarization assay
T1 sequence (P04150 whole entry): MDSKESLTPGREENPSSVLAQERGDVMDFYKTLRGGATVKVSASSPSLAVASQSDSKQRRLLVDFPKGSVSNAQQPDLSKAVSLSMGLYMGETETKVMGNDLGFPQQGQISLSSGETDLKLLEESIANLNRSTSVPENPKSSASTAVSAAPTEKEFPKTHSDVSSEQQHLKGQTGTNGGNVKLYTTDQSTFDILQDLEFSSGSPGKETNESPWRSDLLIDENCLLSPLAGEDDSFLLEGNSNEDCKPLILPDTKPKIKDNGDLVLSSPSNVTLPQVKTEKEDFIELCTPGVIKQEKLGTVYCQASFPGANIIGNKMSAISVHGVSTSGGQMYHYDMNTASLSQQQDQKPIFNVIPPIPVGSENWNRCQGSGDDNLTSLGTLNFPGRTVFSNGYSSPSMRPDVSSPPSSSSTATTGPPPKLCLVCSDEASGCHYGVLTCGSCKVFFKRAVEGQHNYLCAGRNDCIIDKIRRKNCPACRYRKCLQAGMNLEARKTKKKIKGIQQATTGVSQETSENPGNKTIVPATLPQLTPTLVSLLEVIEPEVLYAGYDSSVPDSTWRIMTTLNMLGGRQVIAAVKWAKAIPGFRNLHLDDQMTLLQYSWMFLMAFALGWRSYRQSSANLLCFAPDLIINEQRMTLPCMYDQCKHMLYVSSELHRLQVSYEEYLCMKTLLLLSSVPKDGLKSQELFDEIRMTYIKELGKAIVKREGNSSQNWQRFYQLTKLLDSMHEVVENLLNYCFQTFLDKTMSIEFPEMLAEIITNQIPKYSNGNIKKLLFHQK

Glucocorticoid receptor [2] = biological target: T1, Glucocorticoid receptor; test: Transrepression of glucocorticoid receptor in human A549 cells assessed as inhibition of PMA-induced AP-1 activity by luciferase reporter gene assay; type: cell-based
Glucocorticoid receptor [3] = biological target: T1, Glucocorticoid receptor; test: Transactivation of GR-LBD expressed in human HeLa cells co-expressing GAL4-DBD by luciferase reporter gene assay; type: cell-based
[4] = biological target: T2, Glucocorticoid receptor (Homo sapiens) (UniProt P04150); test: Transrepression of glucocorticoid receptor in human A549 cells assessed as inhibition of PMA-induced AP-1 activity by luciferase reporter gene assay relative to dexamethasone; type: cell-based
T2 sequence (whole entry): T1 sequence (P04150 whole entry)

[5] = biological target: T3, Glucocorticoid receptor (GR-LBD) (Homo sapiens, UniProt P04150); test: (§1) Transactivation of GR-LBD expressed in human HeLa cells co-expressing GAL4-DBD by luciferase reporter gene assayrelative to dexamethasone; type: cell-based; details: HeLa cells expressing GR-LBD and GAL4-DBD, read-out: Efficacy
T3 sequence (P04150 whole entry): T1 sequence (P04150 whole entry)

Glucocorticoid receptor [6] = biological target: T1, Glucocorticoid receptor; test: as §1; type: cell-based; details: hela

Row | SMILES | Ki (Glucocorticoid receptor [1]) [µM] | EC50 (Glucocorticoid receptor [2]) [µM] | EC50 (Glucocorticoid receptor [3]) [µM] | Efficacy [4] [%] | Emax [5] [%] | Efficacy (Glucocorticoid receptor [6]) [%]
1 | CC(C)(C(=O)Nc1nccs1)C(c1ccccc1)c1ccc2cnccc2c1 (centres undefined) | 0.015 | > 10 |  |  |  | 
2 | CC(C)(C(=O)Nc1nccs1)C(c1ccccc1)c1ccn2cncc2c1 (centres undefined) | 0.018 | 1.2 |  | 39 |  | 
3 | CC(C)(C(=O)Nc1nccs1)C(c1ccccc1)c1ccc2nncn2c1 (centres undefined) |  | > 10 |  |  |  | 
4 | CC(C)(C(=O)Nc1nccs1)C(c1ccccc1)c1cc(-c2ccc(F)cc2)c2ncccc2c1 (centres undefined) | 0.285 | > 10 |  |  |  | 
5 | CC(C)(C(=O)Nc1nncs1)C(c1ccccc1)c1ccc2c(-c3ccc(F)cc3)ncn2c1 (single isomer, unassigned; enantiomer 1) [listing 1 of 2 here] |  |  |  | 24 |  | 
6 | CC(C)(C(=O)Nc1nccs1)C(c1ccccc1)c1ccc2[nH]ccc2c1 (centres undefined) | 0.007 | 0.23 |  | 61 |  | 
7 | CC(C)(C(=O)Nc1nccs1)C(c1ccccc1)c1ccc2c(-c3cccc(C#N)c3)ncn2c1 (centres undefined) | 0.004 | 0.225 | > 10 | 30 |  | 
8 | CC(C)(C(=O)Nc1nccs1)C(c1ccccc1)c1ccc2c(-c3ccc(F)c(Cl)c3)ncn2c1 (centres undefined) | 0.008 | 0.114 | > 10 | 26 |  | 
9 | CC(C)(C(=O)Nc1nccs1)C(c1ccccc1)c1ccc2c(-c3ccc(C#N)cc3)ncn2c1 (centres undefined) | 0.004 | 0.089 | > 10 | 37 |  | 
10 | CC(C)(C(=O)Nc1nccs1)C(c1ccccc1)c1ccc2ncccc2c1 (centres undefined) | 0.085 | > 10 |  |  |  | 
11 | CC(C)(C(=O)Nc1nccs1)C(c1ccccc1)c1ccc2c(-c3ccc(F)cc3)ncn2c1 (single isomer, unassigned; enantiomer 1) | 0.004 | > 5 | > 10 |  |  | 
12 | CC(C)(C(=O)Nc1nccs1)C(c1ccccc1)c1ccc2c(ccn2-c2ccc(F)cc2)c1 (centres undefined) |  | 0.22 |  | 60 |  | 
13 | CC(C)(C(=O)Nc1nccs1)C(c1ccccc1)c1ccc2c(-c3ccc(F)cc3)ncn2c1 (single isomer, unassigned; enantiomer 2) [listing 1 of 2 here] | 0.001 | 0.006 | 0.06 |  |  | 69
14 | CC(C)(C(=O)Nc1nncs1)C(c1ccccc1)c1ccc2c(-c3ccc(F)cc3)ncn2c1 (single isomer, unassigned; enantiomer 1) [listing 2 of 2 here] | 0.006 | 1.2 | > 10 |  |  | 
15 | CC(C)(C(=O)Nc1nncs1)C(c1ccccc1)c1ccc2c(-c3ccc(F)c(Cl)c3)ncn2c1 (centres undefined) | 0.005 | 0.111 | > 10 | 20 |  | 
16 | CC(C)(C(=O)Nc1nncs1)C(c1ccccc1)c1ccc2c(-c3ccc(F)cc3)ncn2c1 (centres undefined) [listing 1 of 2 here] | 0.003 | 0.036 | 0.262 |  | 66 | 
17 | CC(C)(C(=O)Nc1nccs1)C(c1ccccc1)c1ccc2c(-c3ccc(F)cc3F)ncn2c1 (centres undefined) | 0.002 | 0.014 | 0.078 | 75 | 73 | 
18 | CC(C)(C(=O)Nc1nncs1)C(c1ccccc1)c1ccc2c(-c3ccc(F)cc3F)ncn2c1 (centres undefined) | 0.001 | 0.015 | 0.117 | 69 | 61 | 
19 | CC(C)(C(=O)Nc1nccs1)C(c1ccccc1)c1ccc2c(-c3ccc(F)cc3)ncn2c1 (single isomer, unassigned; enantiomer 2) [listing 2 of 2 here] |  |  |  | 73 |  | 
20 | CC(C)(C(=O)Nc1nncs1)C(c1ccccc1)c1ccc2c(-c3ccc(F)cc3)ncn2c1 (single isomer, unassigned; enantiomer 2) [listing 1 of 2 here] |  |  |  | 72 |  | 
21 | CC(C)(C(=O)Nc1nncs1)C(c1ccccc1)c1ccc2c(-c3ccc(F)cc3)ncn2c1 (centres undefined) [listing 2 of 2 here] |  |  |  | 68 |  | 
22 | CC(C)(C(=O)Nc1nccs1)C(c1ccccc1)c1ccc2cncn2c1 (centres undefined) |  | > 10 |  |  |  | 
23 | CC(C)(C(=O)Nc1nccs1)C(c1ccccc1)c1ccc2c(-c3ccc(F)cc3)ncn2c1 (centres undefined) [listing 1 of 2 here] | 0.003 | 0.016 | 0.103 |  | 74 | 
24 | CC(C)(C(=O)Nc1nncs1)C(c1ccccc1)c1ccc2c(-c3ccc(C#N)cc3)ncn2c1 (centres undefined) | 0.002 | 0.14 | > 10 | 37 |  | 
25 | CC(C)(C(=O)Nc1nccs1)C(c1ccccc1)c1ccc2c(-c3ccc(F)cc3)ncn2c1 (centres undefined) [listing 2 of 2 here] |  |  |  | 66 |  | 
26 | CC(C)(C(=O)Nc1nncs1)C(c1ccccc1)c1ccc2c(-c3ccc(F)cc3)ncn2c1 (single isomer, unassigned; enantiomer 2) [listing 2 of 2 here] | 0.002 | 0.024 | 0.118 |  |  | 65

Continued, values first:

Row | Ki (Glucocorticoid receptor [1]) [µM] | EC50 (Glucocorticoid receptor [2]) [µM] | EC50 (Glucocorticoid receptor [3]) [µM] | Efficacy [4] [%] | Emax [5] [%] | Efficacy (Glucocorticoid receptor [6]) [%] | SMILES
27 | 0.005 | > 5 | > 10 |  |  |  | CC(C)(C(=O)Nc1nncs1)C(c1ccccc1)c1ccc2c(-c3cccc(CO)c3)ncn2c1 (centres undefined)
28 | 0.001 | 0.254 | 0.613 |  | 43 |  | CC(C)(C(=O)Nc1nncs1)C(c1ccccc1)c1ccn2c(-c3ccccc3)ncc2c1 (single isomer, unassigned; enantiomer 2) [listing 1 of 2 here]
29 | 0.003 | 0.899 | 2 |  |  | 30 | CC(C)(C(=O)Nc1nncs1)C(c1ccccc1)c1ccn2c(-c3ccccc3)ncc2c1 (centres undefined) [listing 1 of 2 here]
30 | 0.005 | 1.12 | > 10 |  |  |  | CC(C)(C(=O)Nc1nncs1)C(c1ccccc1)c1ccn2c(-c3ccccc3)ncc2c1 (single isomer, unassigned; enantiomer 1) [listing 1 of 2 here]
31 | 0.196 | > 10 |  |  |  |  | CC(C)(C(=O)Nc1nncs1)C(c1ccccc1)c1cc(-c2ccc(F)cc2)c2ncccc2c1 (centres undefined)
32 |  |  |  | 66 |  |  | CC(C)(C(=O)Nc1nncs1)C(c1ccccc1)c1ccn2c(-c3ccccc3)ncc2c1 (centres undefined) [listing 2 of 2 here]
33 |  |  |  | 70 |  |  | CC(C)(C(=O)Nc1nccs1)C(c1ccccc1)c1ccn2c(-c3ccccc3)ncc2c1 (centres undefined) [listing 1 of 2 here]
34 |  |  |  | 61 |  |  | CC(C)(C(=O)Nc1nncs1)C(c1ccccc1)c1ccn2c(-c3ccccc3)ncc2c1 (single isomer, unassigned; enantiomer 2) [listing 2 of 2 here]
35 | 0.005 | 0.06 | 0.36 |  | 32 |  | CC(C)(C(=O)Nc1nccs1)C(c1ccccc1)c1ccn2c(-c3ccccc3)ncc2c1 (centres undefined) [listing 2 of 2 here]
36 |  |  |  | 34 |  |  | CC(C)(C(=O)Nc1nncs1)C(c1ccccc1)c1ccn2c(-c3ccccc3)ncc2c1 (single isomer, unassigned; enantiomer 1) [listing 2 of 2 here]
37 | 0.004 | 1.35 | > 10 | 32 |  |  | CC(C)(C(=O)Nc1nncs1)C(c1ccccc1)c1ccc2c(-c3cccc(C#N)c3)ncn2c1 (centres undefined)
38 | 0.011 | > 2.5 | > 10 |  |  |  | CC(C)(C(=O)Nc1nccs1)C(c1ccccc1)c1ccn2c(-c3ccccc3)ncc2c1 (single isomer, unassigned; enantiomer 1)
